“And” between values parts separate entries of the source, which are not always exact repeats. Identical values can stand only once.
Molecular target: T1, cloned KCNQ2/3 potassium channels (encoded by the human KCNQ2/3 gene and expressed in HEK293 cells) (Homo sapiens, UniProt O43525+O43526)
T1 construct: expressed in transfected cells; host or cells: HEK293 cells
Assay: Assessment of KCNQ2/3 channel activation activity, QPatch HT automatic parallel patch clamp
Assay type: cell-based
Details: for KCNQ2/3 activation activity compared with ezogabine: single concentration (0.1 μM); for Mean % KCNQ2/3 Activation: 5 min exposure, room temperature, HEK293 cells; for Individual Data Points (% Activation): single cell values
Protocol: The in vitro effects of ezogabine and Compound 1A on cloned KCNQ2/3 potassium channels (encoded by the human KCNQ2/3 gene and expressed in HEK293 cells) were evaluated at room temperature using the QPatch HT® (Sophion Bioscience A/S, Denmark), an automatic parallel patch clamp system. Each test article was evaluated at 0.01, 0.1, 1, 10 and 100 μM with each concentration tested in at least two cells (n≧2). The duration of exposure to each test article concentration was 5 minutes.
The baseline for each recording was established using a 5-10 minute vehicle application (HBPS+0.3% DMSO). A single test article concentration was applied for a period of 5 minutes after the vehicle, followed by a 3 minute application of 30 μM flupirtine. Each recording ended with a supramaximal dose of 30 μM linopirdine. The % activation was calculated using the following equation by using leak subtracted responses: […]

| Compound | KCNQ2/3 activation activity compared with ezogabine | Mean % KCNQ2/3 Activation (0.01 μM) [%] | Mean % KCNQ2/3 Activation (0.1 μM) [%] | Mean % KCNQ2/3 Activation (1 μM) [%] | Mean % KCNQ2/3 Activation (10 μM) [%] | Mean % KCNQ2/3 Activation (100 μM) [%] | other results |
| --- | --- | --- | --- | --- | --- | --- | --- |
| CCOC(=O)Nc1c(N)cc(NCc2ccc(F)cc2)cc1F [Compound 2A, ethyl(2-amino-6-fluoro-4-((4-fluorobenzyl)amino)phenyl)carbamate] | equivalent in activity to ezogabine | – | – | – | – | – | – |
| CCOC(=O)Nc1cc(F)c(NCc2ccc(F)cc2)cc1N [Compound 3A, ethyl(2-amino-5-fluoro-4-((4-fluorobenzyl)amino)phenyl)carbamate] | equivalent in activity to ezogabine | – | – | – | – | – | – |
| CCOC(=O)Nc1cc(F)c(NCc2ccc(F)cc2)c(F)c1N [Compound 4A, ethyl(2-amino-3,5-difluoro-4-((4-fluorobenzyl)amino)phenyl)carbamate] | equivalent in activity to ezogabine | – | – | – | – | – | – |
| CCOC(=O)Nc1ccc(NCc2ccc(F)cc2)c(F)c1N [Compound 1A, ethyl(2-amino-3-fluoro-4-((4-fluorobenzyl)amino)phenyl)carbamate] | – | 31.4 | 62.9 | 125.5 | 119.9 | 61.9 | Individual Data Points (% Activation) (0.01 μM, listed as Compound lA): 35.9% and 26.9%; Individual Data Points (% Activation) (0.1 μM, listed as Compound lA): 98.9% and 43.3% and 46.6%; Individual Data Points (% Activation) (1 μM, listed as Compound lA): 123.5% and 127.6%; Individual Data Points (% Activation) (10 μM, listed as Compound lA): 119.7% and 120.1%; Individual Data Points (% Activation) (100 μM, listed as Compound lA): 56.6% and 67.3% |
| CCOC(=O)Nc1ccc(NCc2ccc(F)cc2)cc1N [ezogabine, ethyl N-[2-amino-4-[(4-fluorophenyl)methylamino]phenyl]carbamate, reference compound] | – | 6.6 | 40.6 | 94.4 | 132.0 | 104.1 | Individual Data Points (% Activation) (0.01 μM): 2.1% and 11.1%; Individual Data Points (% Activation) (0.1 μM): 49.1% and 32.2%; Individual Data Points (% Activation) (1 μM): 93.6% and 95.2%; Individual Data Points (% Activation) (10 μM): 123.7% and 140.4%; Individual Data Points (% Activation) (100 μM): 93.8% and 101.9% and 116.5% |

Reference: patent publication US9556114B2, “Fluorinated 2-amino-4-(benzylamino)phenylcarbamate derivatives” (SciFluor Life Sciences, Inc., priority 2012, dated 2017)
